Measurements reported in US10844023B2 (Washington University, priority 2017, dated 2020).

Test system: Mfn2 null MEFs
Experiment: Mitochondrial elongation (aspect ratio) fusogenicity assay
Assay type: cell-based, mouse
Settings: for Aspect ratio (MEAN ± SEM): Mfn2 null MEFs, overnight, treatment with 1 μM compound (footnote); for Fusogenicity Rank: rank order of aspect ratio among 44 soluble library compounds

Row | Compound | Aspect ratio (MEAN ± SEM) | Fusogenicity Rank
1 | O=C(NCCSCc1ccccc1)C1CCCCO1 (stereo not drawn) [drawing 218, N-[2-(benzylsulfanyl)ethyl]oxane-2-carboxamide] | 3.3 ± 0.4 | 30
2 | Cc1nc[nH]c1CSCCNC(=O)C1CCN(C(=O)C2CCC2)CC1 [drawing 220, 1-cyclobutanecarbonyl-N-(2-{[(4-methyl-1H-imidazol-5-yl)methyl]sulfanyl}ethyl)piperidine-4-carboxamide] | 2.9 ± 0.5 | 40
3 | O=C(NCCSCc1cccc(Cl)c1)C1CCCCn2nnnc21 (stereo not drawn) [drawing 222, N-(2-{[(3-chlorophenyl)methyl]sulfanyl}ethyl)-5H,6H,7H,8H,9H-[1,2,3,4]tetrazolo[1,5-a]azepine-9-carboxamide] | 2.9 ± 0.2 | 38
4 | CC(Sc1nnc(N2CCOCC2)n1Cc1ccccc1)C(=O)Nc1ccc2[nH]c(=O)[nH]c2c1 (stereo not drawn) [drawing 223, 2-{[4-benzyl-5-(morpholin-4-yl)-4H-1,2,4-triazol-3-yl]sulfanyl}-N-(2-oxo-2,3-dihydro-1H-1,3-benzodiazol-5-yl)propanamide] | 5.2 ± 0.2 | 8
5 | CC1CCCCC1NC(=O)NCCSCc1ccccc1 (stereo not drawn) [drawing 224, 1-[2-(benzylsulfanyl)ethyl]-3-(2-methylcyclohexyl)urea] | 6.8 ± 0.6 | 4
6 | S=C(NCCSCc1ccco1)NC1CC2CCC1C2 (stereo not drawn) [drawing 225, 1-{bicyclo[2.2.1]heptan-2-yl}-3-(2-{[(furan-2-yl)methyl]sulfanyl}ethyl)thiourea] | 3.7 ± 0.9 | 23
7 | CC(Sc1nnc(N2CCOCC2)n1Cc1ccccc1)C(=O)Nc1ccc2c(c1)OCCO2 (stereo not drawn) [drawing 226, 2-{[4-benzyl-5-(morpholin-4-yl)-4H-1,2,4-triazol-3-yl]sulfanyl}-N-(2,3-dihydro-1,4-benzodioxin-6-yl)propanamide] | 6.0 ± 0.1 | 6
8 | CC(Sc1nc(CN2CCOCC2)nc2ccccc12)C(=O)Nc1cccc(C(F)(F)F)c1 (stereo not drawn) [drawing 227, 2-({2-[(morpholin-4-yl)methyl]quinazolin-4-yl}sulfanyl)-N-[3-(trifluoromethyl)phenyl]propanamide] | 5.6 ± 0.6 | 7
9 | Cc1ccc(-n2c(SC(C)C(=O)Nc3ccnn3C(C)C)nnc2N2CCOCC2)cc1 (stereo not drawn) [drawing 229, 2-{[4-(4-methylphenyl)-5-(morpholin-4-yl)-4H-1,2,4-triazol-3-yl]sulfanyl}-N-[1-(propan-2-yl)-1H-pyrazol-5-yl]propanamide] | 4.1 ± 0.9 | 15
10 | CCCc1noc(C(C)Sc2nc3cc(C)ccc3[nH]2)n1 (stereo not drawn) [drawing 231, 5-methyl-2-{[1-(3-propyl-1,2,4-oxadiazol-5-yl)ethyl]sulfanyl}-1H-1,3-benzodiazole] | 4.0 ± 1.0 | 17
11 | CCC(C)C1N=C2c3ccccc3N=C(SC(C)C(=O)Nc3cc(OC)cc(OC)c3)N2C1=O (stereo not drawn) [drawing 234, 2-{[2-(butan-2-yl)-3-oxo-2H,3H-imidazo[1,2-c]quinazolin-5-yl]sulfanyl}-N-(3,5-dimethoxyphenyl)propanamide] | 3.2 ± 0.3 | 32
12 | CCC(C)NC(=O)c1ccccc1NC(=O)C(C)Sc1ccc(C)cc1 (stereo not drawn) [drawing 236, N-(butan-2-yl)-2-{2-[(4-methylphenyl)sulfanyl]propanamido}benzamide] | 3.3 ± 0.4 | 29
